Results from PubChem BioAssay (NCI).
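96-well plates; 48 h exposure; 5 concentrations. Endpoints by linear interpolation between flanking doses. Not reached: highest tested concentration assigned. TGI denotes the concentration required for complete inhibition of growth.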

Key:
Assay in all cases: growth of human tumour cells (NCI), 48 h
KM12 colon = tested on: KM12 colon
U251 CNS = tested on: U251 CNS
NCI-H226 lung = tested on: NCI-H226 lung
OVCAR-3 ovarian = tested on: OVCAR-3 ovarian
ACHN renal = tested on: ACHN renal
HCT-116 colon = tested on: HCT-116 colon
COLO 205 colon = tested on: COLO 205 colon
SK-OV-3 ovarian = tested on: SK-OV-3 ovarian
NCI/ADR-RES ovarian = tested on: NCI/ADR-RES ovarian
NCI-H522 lung = tested on: NCI-H522 lung
HCC-2998 colon = tested on: HCC-2998 colon
PC-3 prostate = tested on: PC-3 prostate
K-562 leukemia = tested on: K-562 leukemia
MOLT-4 leukemia = tested on: MOLT-4 leukemia
SF-539 CNS = tested on: SF-539 CNS
T-47D breast = tested on: T-47D breast
SN12C renal = tested on: SN12C renal
HOP-92 NSCLC = tested on: HOP-92 NSCLC
786-0 renal = tested on: 786-0 renal
HT29 colon = tested on: HT29 colon
SF-295 CNS = tested on: SF-295 CNS
MDA-MB-435 = tested on: MDA-MB-435
NCI-H23 lung = tested on: NCI-H23 lung
TK-10 renal = tested on: TK-10 renal
OVCAR-4 ovarian = tested on: OVCAR-4 ovarian
RPMI-8226 leukemia = tested on: RPMI-8226 leukemia
HS 578T breast = tested on: HS 578T breast
SK-MEL-5 melanoma = tested on: SK-MEL-5 melanoma
SF-268 CNS = tested on: SF-268 CNS
M14 melanoma = tested on: M14 melanoma
UO-31 renal = tested on: UO-31 renal
IGROV1 ovarian = tested on: IGROV1 ovarian
CCRF-CEM leukemia = tested on: CCRF-CEM leukemia
EKVX NSCLC = tested on: EKVX NSCLC
HL-60(TB) leukemia = tested on: HL-60(TB) leukemia
A549 NSCLC = tested on: A549 NSCLC
LOX IMVI melanoma = tested on: LOX IMVI melanoma
SR leukemia = tested on: SR leukemia
UACC-257 melanoma = tested on: UACC-257 melanoma
SW-620 colon = tested on: SW-620 colon
OVCAR-8 ovarian = tested on: OVCAR-8 ovarian
UACC-62 melanoma = tested on: UACC-62 melanoma
RXF 393 renal = tested on: RXF 393 renal
DU-145 prostate = tested on: DU-145 prostate
HOP-62 NSCLC = tested on: HOP-62 NSCLC
SK-MEL-2 melanoma = tested on: SK-MEL-2 melanoma
A498 renal = tested on: A498 renal
SNB-19 CNS = tested on: SNB-19 CNS
MDA-N = tested on: MDA-N
CAKI-1 renal = tested on: CAKI-1 renal
MALME-3M melanoma = tested on: MALME-3M melanoma
MCF7 breast = tested on: MCF7 breast
OVCAR-5 ovarian = tested on: OVCAR-5 ovarian
MDA-MB-231 breast = tested on: MDA-MB-231 breast
NCI-H460 lung = tested on: NCI-H460 lung
SK-MEL-28 melanoma = tested on: SK-MEL-28 melanoma
HCT-15 colon = tested on: HCT-15 colon
SNB-75 CNS = tested on: SNB-75 CNS

**Q.** Which results are given for `CC1(C)C2CCC3CC(CCC#N)CCC3C21C#N` (stereo unspecified)?
**A.** TGI (KM12 colon): > 100 µM; TGI (U251 CNS): > 100 µM; TGI (NCI-H226 lung): > 100 µM; TGI (OVCAR-3 ovarian): > 100 µM; TGI (ACHN renal): > 100 µM; TGI (HCT-116 colon): > 100 µM; TGI (COLO 205 colon): > 100 µM; TGI (SK-OV-3 ovarian): > 100 µM; TGI (NCI/ADR-RES ovarian): > 100 µM; TGI (NCI-H522 lung): > 100 µM; TGI (HCC-2998 colon): > 100 µM; TGI (PC-3 prostate): > 100 µM; TGI (K-562 leukemia): > 100 µM; TGI (MOLT-4 leukemia): > 100 µM; TGI (SF-539 CNS): > 100 µM; TGI (T-47D breast): > 100 µM; TGI (SN12C renal): > 100 µM; TGI (HOP-92 NSCLC): > 100 µM; TGI (786-0 renal): > 100 µM; TGI (HT29 colon): > 100 µM; TGI (SF-295 CNS): > 100 µM; TGI (MDA-MB-435): > 100 µM; TGI (NCI-H23 lung): > 100 µM; TGI (TK-10 renal): > 100 µM; TGI (OVCAR-4 ovarian): > 100 µM; TGI (RPMI-8226 leukemia): > 100 µM; TGI (HS 578T breast): > 100 µM; TGI (SK-MEL-5 melanoma): > 100 µM; TGI (SF-268 CNS): > 100 µM; TGI (M14 melanoma): > 100 µM; TGI (UO-31 renal): > 100 µM; TGI (IGROV1 ovarian): > 100 µM; TGI (CCRF-CEM leukemia): > 100 µM; TGI (EKVX NSCLC): > 100 µM; TGI (HL-60(TB) leukemia): > 100 µM; TGI (A549 NSCLC): > 100 µM; TGI (LOX IMVI melanoma): > 100 µM; TGI (SR leukemia): > 100 µM; TGI (UACC-257 melanoma): > 100 µM; TGI (SW-620 colon): > 100 µM; TGI (OVCAR-8 ovarian): > 100 µM; TGI (UACC-62 melanoma): > 100 µM; TGI (RXF 393 renal): > 100 µM; TGI (DU-145 prostate): > 100 µM; TGI (HOP-62 NSCLC): > 100 µM; TGI (SK-MEL-2 melanoma): > 100 µM; TGI (A498 renal): > 100 µM; TGI (SNB-19 CNS): > 100 µM; TGI (MDA-N): > 100 µM; TGI (CAKI-1 renal): > 100 µM; TGI (MALME-3M melanoma): > 100 µM; TGI (MCF7 breast): > 100 µM; TGI (OVCAR-5 ovarian): > 100 µM; TGI (MDA-MB-231 breast): > 100 µM; TGI (NCI-H460 lung): > 100 µM; TGI (SK-MEL-28 melanoma): > 100 µM; TGI (HCT-15 colon): > 100 µM

**Q.** `CCS(=O)C(=O)N(O)c1ccc(Cl)cc1` (stereo unspecified) was tested. Which TGI (KM12 colon) did it give?
**A.** 47.2 µM

**Q.** What about the TGI (U251 CNS) of the same compound?
**A.** 44.6 µM

**Q.** And the TGI (NCI-H226 lung)?
**A.** > 100 µM

**Q.** And the TGI (OVCAR-3 ovarian)?
**A.** > 100 µM

**Q.** And the TGI (ACHN renal)?
**A.** 55 µM

**Q.** What about the TGI (HCT-116 colon) of the same compound?
**A.** > 100 µM

**Q.** And the TGI (COLO 205 colon)?
**A.** > 100 µM

**Q.** And the TGI (SK-OV-3 ovarian)?
**A.** > 100 µM

**Q.** What about the TGI (NCI/ADR-RES ovarian) of the same compound?
**A.** 81.4 µM

**Q.** What about the TGI (HCC-2998 colon) of the same compound?
**A.** > 100 µM

**Q.** What about the TGI (PC-3 prostate) of the same compound?
**A.** > 100 µM

**Q.** What about the TGI (K-562 leukemia) of the same compound?
**A.** 39.9 µM

**Q.** And the TGI (MOLT-4 leukemia)?
**A.** 25 µM

**Q.** And the TGI (SF-539 CNS)?
**A.** 52.8 µM

**Q.** What about the TGI (T-47D breast) of the same compound?
**A.** > 100 µM

**Q.** What about the TGI (SN12C renal) of the same compound?
**A.** 43 µM

**Q.** And the TGI (HOP-92 NSCLC)?
**A.** > 100 µM

**Q.** What about the TGI (786-0 renal) of the same compound?
**A.** 64.3 µM

**Q.** And the TGI (SF-295 CNS)?
**A.** > 100 µM

**Q.** What about the TGI (MDA-MB-435) of the same compound?
**A.** 30 µM

**Q.** And the TGI (TK-10 renal)?
**A.** > 100 µM

**Q.** And the TGI (OVCAR-4 ovarian)?
**A.** > 100 µM

**Q.** What about the TGI (RPMI-8226 leukemia) of the same compound?
**A.** 20.4 µM

**Q.** What about the TGI (HS 578T breast) of the same compound?
**A.** > 100 µM

**Q.** And the TGI (SK-MEL-5 melanoma)?
**A.** 74.1 µM

**Q.** What about the TGI (SF-268 CNS) of the same compound?
**A.** 55.4 µM

**Q.** What about the TGI (M14 melanoma) of the same compound?
**A.** 35.1 µM

**Q.** And the TGI (UO-31 renal)?
**A.** 46.7 µM

**Q.** And the TGI (CCRF-CEM leukemia)?
**A.** 63.2 µM

**Q.** And the TGI (EKVX NSCLC)?
**A.** > 100 µM

**Q.** What about the TGI (A549 NSCLC) of the same compound?
**A.** > 100 µM

**Q.** What about the TGI (LOX IMVI melanoma) of the same compound?
**A.** 53.1 µM

**Q.** What about the TGI (UACC-257 melanoma) of the same compound?
**A.** 75.8 µM

**Q.** What about the TGI (SW-620 colon) of the same compound?
**A.** 46 µM

**Q.** What about the TGI (UACC-62 melanoma) of the same compound?
**A.** 22.9 µM

**Q.** What about the TGI (RXF 393 renal) of the same compound?
**A.** 41.6 µM

**Q.** And the TGI (DU-145 prostate)?
**A.** > 100 µM

**Q.** What about the TGI (HOP-62 NSCLC) of the same compound?
**A.** > 100 µM

**Q.** What about the TGI (SK-MEL-2 melanoma) of the same compound?
**A.** 56.7 µM

**Q.** And the TGI (A498 renal)?
**A.** > 100 µM

**Q.** What about the TGI (SNB-19 CNS) of the same compound?
**A.** > 100 µM

**Q.** What about the TGI (MDA-N) of the same compound?
**A.** 41.4 µM

**Q.** What about the TGI (SNB-75 CNS) of the same compound?
**A.** > 100 µM

**Q.** What about the TGI (CAKI-1 renal) of the same compound?
**A.** 38.5 µM

**Q.** What about the TGI (MCF7 breast) of the same compound?
**A.** 50.9 µM

**Q.** What about the TGI (OVCAR-5 ovarian) of the same compound?
**A.** > 100 µM

**Q.** And the TGI (MDA-MB-231 breast)?
**A.** > 100 µM

**Q.** And the TGI (SK-MEL-28 melanoma)?
**A.** 35.6 µM

**Q.** What about the TGI (HCT-15 colon) of the same compound?
**A.** 68.5 µM
